Results taken from US20260191968A1, “PROTAC DEGRADERS OF MLLT1 AND/OR MLLT3” (DARK BLUE THERAPEUTICS LTD, priority 2024, published 2026).

Experiments:
[1] = molecular target: T1, MLLT1 (Homo sapiens, UniProt Q03111); assay: MLLT1 degradation assay in MV4-11 cells (JESS chemiluminescent detection), three concentrations, 24 h; format: cell-based; settings: with respect to DMSO control
T1 construct: host or cells: MV4-11
T1 sequence (Q03111 1-559): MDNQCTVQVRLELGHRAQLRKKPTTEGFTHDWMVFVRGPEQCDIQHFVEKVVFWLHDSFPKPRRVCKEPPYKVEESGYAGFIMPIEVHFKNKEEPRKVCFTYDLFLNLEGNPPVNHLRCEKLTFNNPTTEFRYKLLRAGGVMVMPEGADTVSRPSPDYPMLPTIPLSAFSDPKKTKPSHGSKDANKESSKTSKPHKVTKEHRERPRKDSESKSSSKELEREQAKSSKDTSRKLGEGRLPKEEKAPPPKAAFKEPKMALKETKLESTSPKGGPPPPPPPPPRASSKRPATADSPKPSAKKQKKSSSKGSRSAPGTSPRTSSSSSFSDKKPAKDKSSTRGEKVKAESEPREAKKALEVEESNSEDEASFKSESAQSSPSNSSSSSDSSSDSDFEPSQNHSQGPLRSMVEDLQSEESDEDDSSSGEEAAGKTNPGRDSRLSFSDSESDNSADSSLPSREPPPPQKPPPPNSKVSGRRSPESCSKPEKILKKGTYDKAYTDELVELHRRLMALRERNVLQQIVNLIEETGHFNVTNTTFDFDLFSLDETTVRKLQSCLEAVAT
Outline: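 MV4-11 cells treated 24 h at 37° C, 5% CO2 with 1000, 100 and 10 nM compound (0.1% DMSO final). MLLT1 quantified by automated capillary chemiluminescent immunodetection; band peak area expressed as % degradation relative to DMSO control.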

[2] = system: MV4-11 cells; assay: MV4-11 cellular proliferative assay, Assay Format A (CellTiter-Glo, 120 hours); format: cell-based; settings: Homo sapiens
Protocol: An MV4-11 proliferation assay was used to test the ability of compounds to reduce cell viability. MV4-11 cells (ATCC #CRL9591) were grown in IMDM medium (11510596, Gibco) supplemented with 10% fetal bovine serum (F7524, Gibco) and 1% Penicillin/Streptomycin (15140-122, Gibco) at 37° C. with 5% CO2. Cells were seeded in 384-well Elplasia plates (4447, Corning) at a density of 50 cells/well and treated with vehicle (DMSO) or compounds (10 serial semi-log dilutions, 30 μM as top concentration).
After 120 hours of treatment, cells were incubated for 10 min at RT with the CellTiter-Glo (CTG) reagent (G7571, Promega). Measurement of the luminescence signal was performed on a microplate reader (Ensight, PerkinElmer). CTG reagent measures the amount of ATP, which is directly proportional to the number of cells, to determine the number of viable cells in culture.
The data were analysed as follows:
where x is the measured raw signal value of a well, (cr) is the median of the measured signal values for the Central Reference (DMSO) wells on a plate, (sr) is the median of the measured signal values for the Scale Reference (reference compound) wells on a plate.
where the experimental set-up assumes the Hill parameters in certain ranges: S0~Central Reference (CR) from normalization (=Bottom), Sinf~Scale Reference (SR) from normalization (=Top), nHill~1, AC50~within the measured concentration range.

CN1CCC[C@@H]1c1cc2cnc(NC(=O)c3ccc(CCC#Cc4cccc5c4n(C)c(=O)n5C4CCC(=O)NC4=O)cc3)cc2[nH]1 (stereo partly drawn) [Example 53, 4-(4-(1-(2,6-dioxopiperidin-3-yl)-3-methyl-2-oxo-2,3-dihydro-1H-benzo[d]imidazol-4-yl)but-3-yn-1-yl)-N-(2-((R)-1-methylpyrrolidin-2-yl)-1H-pyrrolo[3,2-c]pyridin-6-yl)benzamide]
MLLT1% Degradation @ 0.01 μM [1]: A (Category A: A ≥ 75% degradation) | MLLT1% Degradation @ 0.1 μM [1]: A (Category A: A ≥ 75% degradation) | MLLT1% Degradation @ 1 μM [1]: B (Category B: 50% ≤ B < 75% degradation) | IC50 [2]: ≤ 100 nM

CN1CCC[C@@H]1c1cc2cnc(NC(=O)c3ccc(OCCC#Cc4cccc5c4CN(C4CCC(=O)NC4=O)C5=O)cc3)cc2[nH]1 (stereo partly drawn) [Example 19, 4-((4-(2-(2,6-dioxopiperidin-3-yl)-1-oxoisoindolin-4-yl)but-3-yn-1-yl)oxy)-N-(2-((R)-1-methylpyrrolidin-2-yl)-1H-pyrrolo[3,2-c]pyridin-6-yl)benzamide]
MLLT1% Degradation @ 0.01 μM [1]: B (Category B: 50% ≤ B < 75% degradation) | MLLT1% Degradation @ 0.1 μM [1]: A (Category A: A ≥ 75% degradation) | MLLT1% Degradation @ 1 μM [1]: A (Category A: A ≥ 75% degradation) | IC50 [2]: ≤ 100 nM

CN1CCC[C@@H]1c1cc2cnc(NC(=O)c3ccc(CC4CCN(c5cccc6c5C(=O)N(C5CCC(=O)NC5=O)C6=O)CC4)cc3)cc2[nH]1 (stereo partly drawn) [Example 3, 4-((1-(2-(2,6-dioxopiperidin-3-yl)-1,3-dioxoisoindolin-4-yl)piperidin-4-yl)methyl)-N-(2-((R)-1-methylpyrrolidin-2-yl)-1H-pyrrolo[3,2-c]pyridin-6-yl)benzamide]
MLLT1% Degradation @ 0.01 μM [1]: C (Category C: 25% ≤ C < 50% degradation) | MLLT1% Degradation @ 0.1 μM [1]: A (Category A: A ≥ 75% degradation) | MLLT1% Degradation @ 1 μM [1]: A (Category A: A ≥ 75% degradation) | IC50 [2]: ≤ 100 nM

CN1CCC[C@@H]1c1cc2cnc(NC(=O)c3ccc(OCC#Cc4cccc5c4CN(C4CCC(=O)NC4=O)C5=O)cc3F)cc2[nH]1 (stereo partly drawn) [Example 57, 4-((3-(2-(2,6-dioxopiperidin-3-yl)-1-oxoisoindolin-4-yl)prop-2-yn-1-yl)oxy)-2-fluoro-N-(2-((R)-1-methylpyrrolidin-2-yl)-1H-pyrrolo[3,2-c]pyridin-6-yl)benzamide]
MLLT1% Degradation @ 0.01 μM [1]: A (Category A: A ≥ 75% degradation) | MLLT1% Degradation @ 0.1 μM [1]: A (Category A: A ≥ 75% degradation) | MLLT1% Degradation @ 1 μM [1]: A (Category A: A ≥ 75% degradation) | IC50 [2]: ≤ 100 nM

CN1CCC[C@@H]1c1cc2cnc(NC(=O)CCCCCC3CCN(c4cccc5c4C(=O)N(C4CCC(=O)NC4=O)C5=O)CC3)cc2[nH]1 (stereo partly drawn) [Example 43, 6-(1-(2-(2,6-dioxopiperidin-3-yl)-1,3-dioxoisoindolin-4-yl)piperidin-4-yl)-N-(2-((R)-1-methylpyrrolidin-2-yl)-1H-pyrrolo[3,2-c]pyridin-6-yl)hexanamide]
MLLT1% Degradation @ 0.1 μM [1]: A (Category A: A ≥ 75% degradation) | MLLT1% Degradation @ 1 μM [1]: B (Category B: 50% ≤ B < 75% degradation) | IC50 [2]: ≤ 100 nM

CN1CCC[C@@H]1c1cc2cnc(NC(=O)CCCCCCNc3cccc4c3C(=O)N(C3CCC(=O)NC3=O)C4=O)cc2[nH]1 (stereo partly drawn) [Example 29, 7-{[2-(2,6-dioxopiperidin-3-yl)-1,3-dioxoisoindol-4-yl]amino}-N-{2-[(2R)-1-methylpyrrolidin-2-yl]-1H-pyrrolo[3,2-c]pyridin-6-yl}heptanamide]
MLLT1% Degradation @ 0.01 μM [1]: D (Category D: D < 25% degradation) | MLLT1% Degradation @ 0.1 μM [1]: C (Category C: 25% ≤ C < 50% degradation) | MLLT1% Degradation @ 1 μM [1]: A (Category A: A ≥ 75% degradation) | IC50 [2]: ≤ 100 nM

CN1CCC[C@@H]1c1cc2cnc(NC(=O)c3cccc(-c4cnn(CCCC5CCN(c6cccc7c6C(=O)N(C6CCC(=O)NC6=O)C7=O)CC5)c4)c3)cc2[nH]1 (stereo partly drawn) [Example 47, 3-(1-(3-(1-(2-(2,6-dioxopiperidin-3-yl)-1,3-dioxoisoindolin-4-yl)piperidin-4-yl)propyl)-1H-pyrazol-4-yl)-N-(2-((R)-1-methylpyrrolidin-2-yl)-1H-pyrrolo[3,2-c]pyridin-6-yl)benzamide]
MLLT1% Degradation @ 0.01 μM [1]: C (Category C: 25% ≤ C < 50% degradation) | MLLT1% Degradation @ 0.1 μM [1]: B (Category B: 50% ≤ B < 75% degradation) | MLLT1% Degradation @ 1 μM [1]: A (Category A: A ≥ 75% degradation) | IC50 [2]: ≤ 100 nM

CN1CCC[C@@H]1c1cc2cnc(NC(=O)c3ccc(CCC4CCN(c5cccc6c5C(=O)N(C5CCC(=O)NC5=O)C6=O)CC4)cc3)cc2[nH]1 (stereo partly drawn) [Example 4, 4-(2-(1-(2-(2,6-dioxopiperidin-3-yl)-1,3-dioxoisoindolin-4-yl)piperidin-4-yl)ethyl)-N-(2-((R)-1-methylpyrrolidin-2-yl)-1H-pyrrolo[3,2-c]pyridin-6-yl)benzamide]
MLLT1% Degradation @ 0.01 μM [1]: B (Category B: 50% ≤ B < 75% degradation) | MLLT1% Degradation @ 0.1 μM [1]: A (Category A: A ≥ 75% degradation) | MLLT1% Degradation @ 1 μM [1]: A (Category A: A ≥ 75% degradation) | IC50 [2]: ≤ 100 nM

CN1CCC[C@@H]1c1cc2cnc(NC(=O)c3ccc(CCC#Cc4cccc5c4CN(C4CCC(=O)NC4=O)C5=O)cc3)cc2[nH]1 (stereo partly drawn) [Example 52, 4-(4-(2-(2,6-dioxopiperidin-3-yl)-1-oxoisoindolin-4-yl)but-3-yn-1-yl)-N-(2-((R)-1-methylpyrrolidin-2-yl)-1H-pyrrolo[3,2-c]pyridin-6-yl)benzamide]
MLLT1% Degradation @ 0.01 μM [1]: A (Category A: A ≥ 75% degradation) | MLLT1% Degradation @ 0.1 μM [1]: A (Category A: A ≥ 75% degradation) | MLLT1% Degradation @ 1 μM [1]: B (Category B: 50% ≤ B < 75% degradation) | IC50 [2]: ≤ 100 nM

CN1CCC[C@@H]1c1[nH]c2cc(NC(=O)CCCCCCNc3cccc4c3C(=O)N(C3CCC(=O)NC3=O)C4=O)ncc2c1Cl (stereo partly drawn) [Example 33, N-{3-chloro-2-[(2R)-1-methylpyrrolidin-2-yl]-1H-pyrrolo[3,2-c]pyridin-6-yl}-7-{[2-(2,6-dioxopiperidin-3-yl)-1,3-dioxoisoindol-4-yl]amino}heptanamide]
MLLT1% Degradation @ 0.01 μM [1]: B (Category B: 50% ≤ B < 75% degradation) | MLLT1% Degradation @ 0.1 μM [1]: A (Category A: A ≥ 75% degradation) | MLLT1% Degradation @ 1 μM [1]: A (Category A: A ≥ 75% degradation) | IC50 [2]: ≤ 100 nM

CN1CCC[C@@H]1c1cc2cnc(NC(=O)c3cccc(CCCNc4cccc5c4C(=O)N(C4CCC(=O)NC4=O)C5=O)c3)cc2[nH]1 (stereo partly drawn) [Example 45, 3-(3-((2-(2,6-dioxopiperidin-3-yl)-1,3-dioxoisoindolin-4-yl)amino)propyl)-N-(2-((R)-1-methylpyrrolidin-2-yl)-1H-pyrrolo[3,2-c]pyridin-6-yl)benzamide]
MLLT1% Degradation @ 0.01 μM [1]: A (Category A: A ≥ 75% degradation) | MLLT1% Degradation @ 0.1 μM [1]: A (Category A: A ≥ 75% degradation) | MLLT1% Degradation @ 1 μM [1]: A (Category A: A ≥ 75% degradation) | IC50 [2]: ≤ 100 nM
